The nature of data set [1]: plasma concentration / oral absorption in dogs. Format: in vivo, dog. Here is the method: (§1) This is supported by the observations of plasma concentrations of 3 to 7 μg/ml one hour after oral administration of III, 50 to 300 mg/kg.
Data set [2] concerns passive cutaneous anaphylaxis (PCA). Nature of the data set: PCA test, oral activity in general. The data set is classed as in vivo, rat. Here is the method:
(§2) The antiallergy property of the compounds of this invention is evaluated by the passive cutaneous anaphylaxis (PCA) test (Ovary, J. Immun., 81, 355, 1958). In the PCA test, normal animals are injected intradermally (i.d.) with antibodies contained in serum obtained from actively sensitized animals. The animals are then challenged intravenously with antigen mixed with a dye such as Evans' Blue. The increased capillary permeability caused by the antigen-antibody reaction causes the dye to leak from the site of the antibody injection. The test animals are then asphyxiated and the intensity of the reaction determined by measuring the diameter and intensity of the blue coloration on the inner surface of the animals' skin.
The ability of agents to interfere with PCA reactions is measured in male Charles River Wistar rats, 170-210 g. Reaginic antiserum, rich in IgE antibodies, is prepared according to Petillo et al., Int. Arch. Allergy, 44, 309 (1973). Hyperimmune antiserum rich in IgG antibodies to hen egg albumin is prepared according to Orange et al., J. Exptl. Med., 127, 767 (1968). Forty-eight hours prior to antigen challenge, the reaginic antiserum is injected intradermally (i.d.) into the shaved skin of a normal rat's back; 5 hours before challenge the hyperimmune antisera is similarly injected. […] The difference is expressed as percent blockage due to the compound employed.

Data set [3] concerns histamine and serotonin. Nature of the data set: cutaneous permeability caused by intradermal exogenous histamine and serotonin. The data set is classed as in vivo, rat. Here is the method: The ability of agents to interfere with PCA reactions is measured in male Charles River Wistar rats, 170-210 g. Reaginic antiserum, rich in IgE antibodies, is prepared according to Petillo et al., Int. Arch. Allergy, 44, 309 (1973). Hyperimmune antiserum rich in IgG antibodies to hen egg albumin is prepared according to Orange et al., J. Exptl. Med., 127, 767 (1968). Forty-eight hours prior to antigen challenge, the reaginic antiserum is injected intradermally (i.d.) into the shaved skin of a normal rat's back; 5 hours before challenge the hyperimmune antisera is similarly injected. At a third site 60 mcg. histamine dihydrochloride and 0.5 mcg. serotonin creatinine sulfate are injected i.d. just prior to antigen challenge as a check for antihistaminic, antiserotonin and unspecific types of blockage; the compounds of the instant invention or saline are then administered i.v. and immediately followed by the challenge of 5 mg. egg albumen and 2.5 mg. Evans' Blue dye in saline. In the case of oral administration Evans' Blue dye and egg albumin are given 5 minutes after administration of the drug. Thirty minutes later the animals are asphyxiated using chloroform and the skin of the back removed and reversed for observation. […] The difference is expressed as percent blockage due to the compound employed.

Data set [4] has as its system anticholinergic effects. Nature of the data set: anticholinergic effects.
In data set [5] the test system is IgE. Nature of the data set: passive cutaneous anaphylaxis (PCA) test, oral, IgE (reaginic antiserum) site. The data set is classed as in vivo, rat. Particulars: Table I, 1 mg./kg. Here is the method: as §2
The PCA test is a measure of the anti-allergic (especially anti-asthmatic) activity of a compound. Compounds which inhibit a positive PCA test induced by the rat immunochemical counterpart of human immunoglobulin E (IgE), or reagin, are considered to have anti-allergic activity (C. Mota, Ann. N.Y. Acad. Sci., 103, 264 1963). (Reagin is primarily immunoglobulin E [IgE] and is the principal immunoglobulin responsible for allergic asthma, anaphylaxis, hay fever, food sensitivities and certain manifestations of drug sensitivities, although recent evidence ascribes to the IgG class of antibodies a significant role in the mediation of allergic diseases). Such compounds when administered to a sensitized subject, human or animal, prior to the time when the subject comes into contact with antigens or substances to which it is allergic, will prevent the allergic reaction which would otherwise occur. They, therefore, provide a method for the prophylactic treatment of allergy or anaphylactic reactions of a reagin mediated nature.
To put it another way, such compounds block the release of mediators resulting from the antigen-antibody (allergic) reaction as illustrated in the PCA test using rat homocytotropic antibody--a known correlate of human reaginic antibody. Inhibition of reaginic antigen-antibody reactions in rats, the test animal of the PCA test, is regarded as representative of inhibition of human reaginic antigen-antibody reactions which occur during allergic episodes.
The ability of agents to interfere with PCA reactions is measured in male Charles River Wistar rats, 170-210 g. Reaginic antiserum, rich in IgE antibodies, is prepared according to Petillo et al., Int. Arch. Allergy, 44, 309 (1973). Hyperimmune antiserum rich in IgG antibodies to hen egg albumin is prepared according to Orange et al., J. Exptl. Med., 127, 767 (1968). Forty-eight hours prior to antigen challenge, the reaginic antiserum is injected intradermally (i.d.) into the shaved skin of a normal rat's back; 5 hours before challenge the hyperimmune antisera is similarly injected. At a third site 60 mcg. histamine dihydrochloride and 0.5 mcg. serotonin creatinine sulfate are injected i.d. just prior to antigen challenge as a check for antihistaminic, antiserotonin and unspecific types of blockage; the compounds of the instant invention or saline are then administered i.v. and immediately followed by the challenge of 5 mg. egg albumen and 2.5 mg. Evans' Blue dye in saline. In the case of oral administration Evans' Blue dye and egg albumin are given 5 minutes after administration of the drug. Thirty minutes later the animals are asphyxiated using chloroform and the skin of the back removed and reversed for observation. A score is assigned each injection site equal to the product of the diameter of the site in mm. and a grade of 0.1, 0.5, 1, 2, 3 or 4 proportional to intensity of dye coloration. The scores for a given injection site are summed for each group of five animals and compared to the saline treated controls. The difference is expressed as percent blockage due to the compound employed. […]

Data set [6] in a line: plasma concentration / oral absorption in rats. Format: in vivo, rat. Here is the method: as §1
Data set [7] concerns isolated guinea pig ileum. Nature of the data set: spasms of isolated guinea pig ileum. To be noted: 10^-8 to 10^-4 M.
Data set [8] has as its system isolated rat monocytes. Nature of the data set: ionophore-stimulated synthesis and release of SRS in isolated monocytes. Format: cell-based.

Results on one compound are retold here after patent US4414388A, “1-Oxo-1H-thiazolo[3,2-a]pyrimidine-2-carboxamides” (Pfizer Inc., priority 1981, dated 1983).

On to `O=C(Nc1nnn[nH]1)c1cnc2sc3c(n2c1=O)CCCC3` [compound III, N-(5-tetrazolyl)-1-oxo-1H-cyclohexenothiazolo[3,2-a]pyrimidine-2-carboxamide], for which the “oral absorption, dog” value in data set [1] (oral suspensions or capsules) was “absorbed readily”. For the same compound, the concentration at 1 h in data set [1] (plasma, dog, one hour, oral 50 to 300 mg/kg, suspensions or capsules, read-out: plasma concentration one hour after oral administration, dog) fell in the range of 9000 to 26000 ng/mL; in data set [6] (plasma, rat, one hour, oral 50 to 300 mg/kg, read-out: plasma concentration one hour after oral administration, rat) it was 3000 to 7000 ng/mL. For the same compound, the “oral activity, in words” value in data set [2] is “excellent oral activity”. Besides, the “changes in permeability caused by intradermal histamine and serotonin” value in data set [3] (exogenous histamine and serotonin, intradermal) is recorded as “does not interfere with the changes in permeability”. For the same compound, the “antihistaminic and antiserotonin effects” value in data set [3] (rat, in vivo) is “absence of antihistaminic and antiserotonin effects”. In data set [4], the anticholinergic effects result is recorded as “no significant anticholinergic effects”. The “Oral Activity (% of Protection) of Amides in the PCA Test, IgE 1 mg./kg.” value in data set [5] worked out at 47%. The “oral absorption, rat” value in data set [6] (ratio of comparably effective oral and intravenous doses in rat PCA test) is given as “good oral absorption”. Further, in data set [7] (acetylcholine), the “antagonism of spasms of isolated guinea pig ileum induced with acetylcholine” value is recorded as “does not antagonize spasms”. Further, in data set [7] (histamine), the “antagonism of spasms of isolated guinea pig ileum induced with histamine” value was “does not antagonize spasms”. In addition, the “antagonism of spasms of isolated guinea pig ileum induced with SRS-A” value in data set [7] (slow reacting substance of anaphylaxis (SRS-A)) is recorded as “does not antagonize spasms”. Also, the “synthesis and release of SRS in isolated rat monocytes, stimulated by an ionophore” value in data set [8] is recorded as “is not inhibited”.
